{"source": "patent US6548553B2", "about": "“Styryl sulfone anticancer agents” (Temple University-of the Commonwealth System of Higher …, priority 1997, dated 2003)", "key": {"[1]": {"system": "DU145 cells", "test": "Comparison with cisplatin, Trypan blue viability after 72 hours", "format": "cell-based", "details": "DU145, 72 hours, Trypan blue exclusion", "experimental": "(§1) The killing effect of FR-20 on androgen-sensitive (LnCaP) and androgen insensitive (DU145) prostate tumor cells was compared to the effect of cisplatin (cis-diamminedichloroplatinum II), a widely used anti-prostate cancer agent. The cells were grown as in Example 26. FRI-20 or cisplatin was dissolved in DMSO and added to the cells at various concentrations. Viability was determined after 72 hours by the Trypan blue exclusion method. The concentration of FRI-20 required to completely kill LnCaP and DU145 cells was 2.5 μM and 5.0 μM, respectively. Under identical conditions, complete killing of LnCaP and DU145 cells by cisplatin required 25 μM and 15 μM concentrations, respectively."}, "[2]": {"system": "LnCaP cells", "test": "Comparison with cisplatin, Trypan blue viability after 72 hours", "format": "cell-based", "experimental": "as §1"}, "[3]": {"system": "MIA-PaCa-2", "test": "GI50 growth inhibition, trypan blue cell count", "format": "cell-based, human", "details": "Homo sapiens, MIA PaCa-2; pancreatic; 96 hours after addition", "experimental": "(§2) The human carcinoma cell lines listed in Table 5 below were purchased from ATCC and grown in an appropriate growth medium containing 10% fetal bovine serum (FBS) and antibiotics. The cells were plated at a cell density of 1.0×10^5 cells per […] in 6-well dishes. The cells were treated with various concentrations of (E)-fluorostyryl-4-bromobenzylsulfone 24 hours after plating in a total volume of 1 ml of medium using dimethylsulfoxide (DMSO) as a solvent for the compound. Control cells were treated with DMSO alone. The total number of viable cells was determined 96 hours after the addition of the compound by counting the cells in each well using a hemacytometer after trypan blue staining (viable cells exclude the stain). The counts were done in duplicate and the average was graphed in FIG. 8 as a percentage of the non-treated control group."}, "[4]": {"system": "U87", "test": "GI50 growth inhibition, trypan blue cell count", "format": "cell-based, human", "details": "Homo sapiens, U-87 MG; glioblastoma; 96 hours after addition", "experimental": "as §2"}, "[5]": {"system": "DLD-1", "test": "GI50 growth inhibition, trypan blue cell count", "format": "cell-based, human", "details": "Homo sapiens, DLD-1; cob-rectal; 96 hours after addition", "experimental": "as §2"}, "[6]": {"system": "H157", "test": "GI50 growth inhibition, trypan blue cell count", "format": "cell-based, human", "details": "Homo sapiens, NCI-H157; lung, non-small cell; 96 hours after addition", "experimental": "as §2"}, "[7]": {"system": "H1299", "test": "GI50 growth inhibition, trypan blue cell count", "format": "cell-based", "details": "Homo sapiens, NCI-H1299; lung, non-small cell; 96 hours after addition", "experimental": "as §2\nApplying the same protocol as in Example 34, the GI50 for compound FRI-20 treatment of the cell lines in Table 6 was determined: […]"}, "[8]": {"molecular_target": "T1, ERK-2 (Homo sapiens, UniProt P28482)", "T1 construct": "ERK-2 in 100 mg of cell lysate was immunoprecipitated; endogenous in cells; host or cells: LnCaP, MCF-7 (human) and NIH3T3 (mouse) cells", "T1 sequence (P28482 2-360)": "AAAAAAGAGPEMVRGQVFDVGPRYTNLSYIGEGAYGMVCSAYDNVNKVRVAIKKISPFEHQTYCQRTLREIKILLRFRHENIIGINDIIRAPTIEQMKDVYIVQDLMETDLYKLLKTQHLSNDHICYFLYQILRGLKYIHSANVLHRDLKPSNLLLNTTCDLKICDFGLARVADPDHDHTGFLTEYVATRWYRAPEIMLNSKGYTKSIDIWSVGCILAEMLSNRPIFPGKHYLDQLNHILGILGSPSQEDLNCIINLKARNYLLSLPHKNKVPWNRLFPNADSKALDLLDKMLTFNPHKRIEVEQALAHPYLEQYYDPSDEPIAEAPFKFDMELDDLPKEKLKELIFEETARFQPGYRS", "test": "Immune complex ERK-2 kinase assay with MBP substrate, treated cells", "format": "cell-based", "design": "dose or concentration left out as unconfirmed", "details": "prostate tumor cells", "experimental": "To examine the effects of FRI-20 on the MAPK pathway, NIH3T3, LnCaP and MCF-7 cells were incubated with FRI-20 at a concentration […] for 48 hours. Following incubation of cells in the presence and absence of FRI-20, the cells were lysed using ERK lysis buffer containing 20 mM HEPES (pH 7.4), 50 mM β-glycerophosphate, 0.5% Triton X-100, 2 mM MgCl2, 1 mM EGTA, 1 mM dithiothreitol, 2 μg/ml leupeptin, 2 μg/ml aprotinin, 100 μM phenylmethylsulfonyl fluoride, and 1 mM benzamidine. ERK-2 in […] of cell lysate was immunoprecipitated by incubating lysate protein with […] of ERK-2 polyclonal antibody (antibody sc-154 to ERK2 is from Santa Cruz Biotechnology, Inc.) for one hour followed by an additional incubation of 20 μl of protein A-Sepharose (Pharmacia) for one hour. The immune complex-bound protein A-Sepharose beads were washed twice with lysis buffer and twice with\nERK/MAPK buffer containing 20 mM HEPES (pH 7.4), 50 mM β-glycerophosphate, 10 mM MgCl2, 1 mM EGTA, 1 mM dithiothreitol, and […] Na3VO4.\nThe immunoprecipitates were then tested for MAP kinase activity by an in vitro assay which utilizes myelin basic proteins (MBP) as a substrate for ERK-2 in the presence of [γ-^32P] ATP. Accordingly, the beads were resuspended in 40 μl of MAPK buffer containing 100 μM [γ-^32P] […]"}, "[9]": {"system": "LnCaP cells", "test": "Cell cycle analysis by propidium iodide flow cytometry (FACS)", "format": "cell-based", "details": "2.0 μM; harvested 6, 12, 24 and 48 hours", "experimental": "The androgen-dependent prostate tumor cell line LnCaP was grown as in Ex. 22, A, and treated with 2.0 μM FRI-20 dissolved in DMSO or with equivalent amounts ([…]) of DMSO alone. Cells were harvested 6, 12, 24, and 48 hours following treatment and stained with propidium iodide and subjected to flow cytometry (FACS) for analysis of DNA content."}, "[10]": {"system": "JNK", "test": "JNK immune complex kinase assay with GST-c-Jun substrate, treated cells", "format": "cell-based", "details": "48 hours treatment; NIH3T3, MCF-7 or LnCaP", "experimental": "To further establish if the activity of stress activated protein kinases (SAPKs), of which JNK is a member, is compromised in the presence of FRI-20, cells (NIH3T3, MCF-7 or LnCaP) were treated with FRI-20 dissolved in DMSO or with DMSO alone. Forty-eight hours later, the cells were lysed with kinase buffer and the lysates used for estimation of the amount of JNK present in each lysate by western blot analysis using JNK polyclonal antibody. The biochemical activity of the JNK present in the FRI-20-treated and mock-treated cell lysates was also determined by immunoprecipitation of JNK followed by incubation with GST-c-Jun protein as a substrate for JNK in the presence of [γ-^32P]ATP.\nAccordingly, JNK-1 in 100 mg of cell extracts was immunoprecipitated by incubating the lysate with […] of JNK-1 polyclonal antibody (sc from Santa Cruz Biotechnology) for one hour followed by an additional incubation with 20 μl of protein A-Sepharose (Pharmacia) for one hour. The beads were washed twice with JNK lysis buffer (as described above) followed by two washes with JNK reaction buffer. The beads were resuspended in 40 μl of JNK buffer containing […] [γ-^32P] […] The reaction was stopped, and the radioactivity in the phosphorylated GST-c-Jun protein was quantitated."}}, "data": [{"compound": "O=S(=O)(/C=C/c1ccc(F)cc1)Cc1ccc(Cl)cc1", "note": "[Example 11, E-4-fluorostyryl 4-chlorobenzyl Sulfone]", "values": [{"measurement": "concentration required to completely kill cells", "setting": "[1]", "value": 5.0, "unit": "µM"}, {"measurement": "concentration required to completely kill cells", "setting": "[2]; LnCaP, 72 hours, Trypan blue exclusion", "value": 2.5, "unit": "µM"}, {"measurement": "activity relative to cisplatin in killing prostate tumor cells", "setting": "[2]; both LnCaP and DU145, 72 hours", "value": "at least tenfold more active than cisplatin"}, {"measurement": "GI50", "setting": "[3]", "value": 500, "unit": "nM"}, {"measurement": "GI50", "setting": "[4]", "value": 2000, "unit": "nM"}, {"measurement": "GI50", "setting": "[5]", "value": 1000, "unit": "nM"}, {"measurement": "GI50", "setting": "[6]", "value": 1500, "unit": "nM"}, {"measurement": "GI50", "setting": "[7]", "value": 2000, "unit": "nM"}, {"measurement": "reduction of phosphorylation status of MBP compared to mock-treated cells", "setting": "[8]", "value": "more than 80%"}, {"measurement": "effect on cell cycle (DNA content)", "setting": "[9]", "value": "accumulation of cells in the G2/M phase of the cell cycle"}, {"measurement": "enhancement of JNK phosphorylation of GST-c-Jun compared to mock-treated cells", "setting": "[10]", "value": "60-80%"}]}]}
